Assays:
BAX = target: T1, BAX (Mus musculus, UniProt Q07813); test: CETSA, […] EO, TM lowered by […] °C; assay type: cell-based; details: read-out: CETSA, 10 μM EO, TM lowered by 9 °C
T1 construct: endogenous BAX in BAK KO mouse embryonic fibroblasts

BAX R134E = target: T2, BAX R134E (Homo sapiens, UniProt Q07812, R134E); test: 1H-15N HSQC NMR chemical shift perturbation; liposomal release inhibition; assay type: binding
T2 construct: full-length (1–192)
T2 sequence (Q07812 whole entry R134E): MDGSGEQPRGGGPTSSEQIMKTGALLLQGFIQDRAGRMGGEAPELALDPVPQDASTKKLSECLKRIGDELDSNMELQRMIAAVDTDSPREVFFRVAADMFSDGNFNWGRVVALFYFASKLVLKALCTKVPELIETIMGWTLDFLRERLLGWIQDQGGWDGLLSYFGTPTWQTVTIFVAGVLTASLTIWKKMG

T1 sequence (Q07813 whole entry): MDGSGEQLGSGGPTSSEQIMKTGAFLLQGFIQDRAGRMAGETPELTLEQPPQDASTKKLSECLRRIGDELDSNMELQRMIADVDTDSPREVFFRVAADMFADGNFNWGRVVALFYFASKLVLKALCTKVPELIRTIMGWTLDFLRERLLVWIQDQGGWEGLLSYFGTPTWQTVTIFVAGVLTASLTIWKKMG

## CC1=NN(c2ccc(C)c(C)c2)C(=O)/C1=N\Nc1cccc(-c2cccc(C(=O)O)c2)c1O [compound 2, Eltrombopag]
BAX
  Tm decrease at 10 µM: 9 °C
BAX R134E
  1H-15N HSQC NMR chemical shift perturbation; liposomal release inhibition: BAX R134E in the presence of EO exhibited clustering of CSPs to the trigger site, albeit with reduced CSPs

Reference: paper PMC7892824, “Eltrombopag directly inhibits BAX and prevents cell death” (Nature Communications, 2021)
